Experimental data as given in patent publication US20080261866A1, “Compositions Comprising Glycosaminoglycan and Nonsteroidal Anti-Inflammatory Drug” (PANACEA BIOTEC LTD., priority 2005, published 2008).

Key:
[1] = test system: diclofenac-induced gastric ulcers; assay: Diclofenac-induced acute gastric ulcers in rats; settings: Single oral administration of diclofenac free acid 100 mg/kg, fasted animals
Experimental: Wistar rats of either sex were fasted overnight and weighing 170-200 g at the time of testing were used throughout. […] A dosing volume of 10 ml/kg was used for each sequential solution or suspension. All doses were coded and the test was performed under a code not known to the observer.
The ulcers were induced as described by Chan et al. (1995). In brief, overnight fasted animals were weighed and randomly divided into four groups. […] The number of ulcers was identified using 10× magnifying lens, counted, multiplied by respective score, and summed up for each animal. The mean score as ulcer index in each group was calculated as mentioned below.

[2] = test system: Indomethacin-induced gastric ulcers; assay: Indomethacin-induced acute gastric ulcers in rats; type: in vivo, Wistar rats; settings: Single oral administration of indomethacin 20 mg/kg, fasted animals
Experimental: The observed unexpected gastroprotective effect of Chondroitin sulphate is evidenced by test conducted in rats. Wistar rats of either sex were procured from Central Animal House facility, Panacea Biotec Ltd., India. The animals were fasted overnight and those weighing between 150-170 gms at the time of testing were used throughout. […] In brief, overnight fasted animals were administered orally with 20 mg/kg of Indomethacin on the day of experimentation. […] [table]

| Compound | Gastric damage (in words) [1] | Gastric damage (in words) [2] |
| --- | --- | --- |
| O=C(O)Cc1ccccc1Nc1c(Cl)cccc1Cl [Diclofenac, Diclofenac free acid] | severe gastric damage |  |
| COc1ccc2c(c1)c(CC(=O)O)c(C)n2C(=O)c1ccc(Cl)cc1 [Indomethacin] |  | severe gastric damage |
